By Cmax is commonly meant the peak of the concentration-time curve. As usually defined, the Tmax is the time at which the peak concentration occurs. In general, AUC refers to the area under the concentration-time curve, a measure of exposure.

This is an account of results in patent US20230263786A1, “MODULATION OF DRUG-DRUG INTERACTIONS OF VADADUSTAT” (Akebia Therapeutics, Inc., priority 2020, published 2023).

The nature of data set [1]: Phase I ferrous sulfate tablet interaction study.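 For all read-outs here: crossover in fasted human subjects with four-day washout between periods, plasma glucuronide metabolite pharmacokinetics, ratios computed as metabolite over parent for AUC and Cmax.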 Conditions: for Metabolite Ratio AUC(0-t) / Metabolite Ratio Cmax: Metabolite/Parent; for AUC(0-t) / Cmax / Tmax: metabolite in plasma; for AUC(0-t) / Cmax: mean; for Tmax: median.
Protocol: Pharmacokinetics. […] The ratio of metabolite to parent was calculated for each glucuronide metabolite for AUC(0-t); and AUC(0-inf) and Cmax.
Comparative Bioavailability. […] Factors incorporated in the model included: Sequence, Subject (Sequence), Period, and Treatment.
Treatment of Subjects. […] All subjects are dosed on the same day for Day 1 of Confinement Period 1, and are crossed over to the alternate treatment and are dosed on the same day for Day 1 of Confinement Period 2. Both treatments are administered in a fasted state, and a four-day Washout Period separates each Confinement Period.
The nature of data set [2]: Phase I interaction study Part 2 Arm 1: sulfasalazine. Conditions: for AUC(0-inf) / Cmax / AUC(0-t): both sexes, 500 mg. Format: in vivo, human. On the procedure:
The study included 3 periods as follow: • Screening: performed within 28 days prior to dosing on Day 1. • Treatment period: […] In Part 2 (Arm 1): For each dose of sulfasalazine administered, blood samples for PK analysis were collected at the following timepoints: pre-dose, 0.5, 1, 2, 3, 4, 5, 6, 8, 12, 18, 24, 36, 48, 60, 72 and 96 hours postdose. […] Arm 1 (sulfasalazine): 26 subjects were treated with the study drug. On the morning of Day 1, subjects received a single oral dose of sulfasalazine 500 mg after at least a 10-hour overnight fast. Subjects would remain fasted for approximately 4 hours after dosing. Following a 5-day washout period (Days 1-5) subjects received vadadustat 600 mg once daily beginning on Day 6 for 7 days (Days 6-12). […] On Day 9, subjects received their morning dose of vadadustat 600 mg along with a single oral dose of sulfasalazine 500 mg after at least a 10-hour overnight fast. Subjects would remain fasted for at least 4 hours after dosing. Subjects were discharged from the clinical research unit on the morning of Day 13.

Data set [3] in a line: Phase I interaction study Part 2 Arm 2: pravastatin. Conditions: for Cmax / AUC(0-inf) / AUC(0-t): both sexes, human, plasma, oral; for AUC(0-inf): read-out: AUC0-inf, Geometric LSM; for AUC(0-t): read-out: AUC0-last, Geometric LSM. Format: in vivo, human. The protocol: The pharmacokinetic (pK) parameters and safety of said drugs administered alone and in combination with Compound 1 were characterized.
Arm 2 (pravastatin): 26 subjects were treated with the study drug. On the morning of Day 1, subjects received a single oral dose pravastatin 40 mg after at least a 10-hour overnight fast. Subjects would remain fasted for approximately 4 hours after dosing. Following a 2-day washout period (Days 1-2) subjects received vadadustat 600 mg once daily beginning on Day 3 for 4 days (Days 3-6). When administered alone, vadadustat would be administered in the morning at least 30 minutes prior to breakfast. On Day 6, subjects received their morning dose of vadadustat 600 mg along with a single oral dose of pravastatin 40 mg after at least a 10-hour overnight fast. Subjects would remain fasted for at least 4 hours after dosing. Subjects were discharged from the clinical research unit on the morning of Day 7.

Data set [4] in a line: Phase I interaction study Part 1: rosuvastatin. Format: in vivo, human. Conditions: for AUC(0-inf) / AUC(0-t) / Cmax: both sexes, human, plasma, oral; for AUC(0-inf): read-out: AUC0-inf, Geometric LSM; for AUC(0-t): read-out: AUC0-last, Geometric LSM; for Cmax: read-out: Cmax, Geometric LSM. On the procedure:
In Part 1, 34 subjects were treated with the study drug. On the morning of Day 1, subjects received a single oral dose of rosuvastatin 20 mg after at least a 10-hour overnight fast. Subjects would remain fasted for at least 4 hours after dosing. […] When administered alone, vadadustat would be administered in the morning at least 30 minutes prior to breakfast. On Day 10, subjects received their morning dose of vadadustat 600 mg along with a single oral dose of rosuvastatin 20 mg after at least a 10-hour overnight fast. Subjects would remain fasted for at least 4 hours after dosing. Subjects were discharged from the clinical research unit (CRU) on the morning of Day 15.

Data set [5] can be described thus: Phase I interaction study Part 3 Arm 2: simvastatin. The data set is classed as in vivo, human. On the procedure:
Subjects would remain fasted for approximately 4 hours after dosing. […] Subjects would remain fasted for at least 4 hours after dosing. Subjects were discharged from the clinical research unit on the morning of Day 6.

Data set [6] can be described thus: Phase I interaction study Part 3 Arm 1: atorvastatin. The data set is classed as in vivo, human. Conditions: for AUC0-∞, Ratio of geometric mean value Combined/alone / Cmax, Ratio of geometric mean value Combined/alone: Atorvastatin 40 mg, Compound 1 600 mg; for AUCtau, Geometric LSM Ratio (A + V/A) / Cmax, Geometric LSM Ratio (A + V/A): atorvastatin 40 mg QD, vadadustat 600 mg QD; for AUC / Cmax: both sexes, human, plasma, oral, 40 mg; for AUC: heading: AUCtau, Geometric LSM; for Cmax: read-out: Cmax, Geometric LSM. An excerpt: Subjects were discharged from the clinical research unit on the morning of Day 9.

The mark [7] stands for this setting: treatment Compound 1 450 mg alone.
Where [8] appears, read: administered with Compound 1 compared to alone.
Setting [9] is: Treatment P + V: pravastatin 40 mg + vadadustat 600 mg QD.
Setting [10] is: Treatment P: pravastatin 40 mg alone.
[11] abbreviates: pravastatin 40 mg, vadadustat 600 mg QD.
The mark [12] stands for this setting: Rosuvastatin 20 mg, Compound 1 600 mg.
[13] abbreviates: Treatment R + V: rosuvastatin 20 mg + vadadustat 600 mg QD.
The mark [14] stands for this setting: Treatment R: rosuvastatin 20 mg alone.
The mark [15] stands for this setting: rosuvastatin 20 mg, vadadustat 600 mg QD.
Where [16] appears, read: both sexes, human, in vivo, 40 mg.

Take `O=C(CNC(=O)c1ncc(-c2cccc(Cl)c2)cc1O)O[C@@H]1O[C@H](C(=O)O)[C@@H](O)[C@H](O)[C@H]1O` [Compound 1-acyl-glucuronide]: in data set [1] (treatment Compound 1 + Iron), the “Metabolite Ratio AUC(0-t)” value is reported as 0.000458, the “Metabolite Ratio Cmax” value amounted to 0.000909, the “AUC(0-t)” value was 86.4 ng·h/mL and the Cmax was 32.2 ng/mL. The time of peak concentration (Tmax) in data set [1] (treatment Compound 1 + Iron) stood at 3.0 h. In data set [1] (treatment Compound 1 alone), the “Metabolite Ratio AUC(0-t)” value turned out to be 0.00543 and the “Metabolite Ratio Cmax” value turned out to be 0.00112. Also, in data set [1] (setting [7]), the “AUC(0-t)” value was found to be 208 ng·h/mL, the Cmax turned out to be 82.6 ng/mL and the Tmax is reported as 1.75 h.

For `Nc1ccc(O)c(C(=O)O)c1` [Mesalamine, mesalamine], in data set [2] (Treatment S: sulfasalazine 500 mg alone), the “AUC0-last, Geometric LSM” value was found to be 220 ng·h/mL. In data set [2] (human, in vivo), this compound registered an AUC(0-inf) of 247 ng·h/mL and a Cmax of 22 ng/mL.

Turning to `CC[C@H](C)C(=O)O[C@H]1C[C@H](O)C=C2C=C[C@H](C)[C@H](CC[C@@H](O)C[C@@H](O)CC(=O)O)[C@H]21` [Pravastatin, pravastatin], the “change of systemic exposure” value in data set [3] (setting [8]) is recorded as “unchanged”. In addition, in data set [3] (setting [9]), the maximum concentration (Cmax) was found to be 44 ng/mL, the AUC(0-inf) is 137000 ng·h/mL and the AUC(0-t) turned out to be 134000 ng·h/mL. Also, in data set [3] (setting [10]), the Cmax worked out at 53.2 ng/mL, the AUC(0-inf) turned out to be 134000 ng·h/mL and the AUC(0-t) came out at 130000 ng·h/mL. Moreover, in data set [3] (setting [11]), the “AUC0-inf, Geometric LSM Ratio (P + V/P)” value came to 102.03%; the “AUC0-last, Geometric LSM Ratio (P + V/P)” value is 102.98%; the “Cmax, Geometric LSM Ratio (P + V/P)” value is recorded as 82.74%.

Consider `CC(C)c1nc(N(C)S(C)(=O)=O)nc(-c2ccc(F)cc2)c1/C=C/[C@@H](O)C[C@@H](O)CC(=O)O` [Rosuvastatin, rosuvastatin], for which, in data set [4] (setting [12]), the “AUC0-∞, Ratio of geometric mean value Combined/alone” value is reported as 246.86% and the “Cmax, Ratio of geometric mean value Combined/alone” value is on record as 274.80%. In addition, in data set [4] (setting [13]), the AUC(0-inf) was determined as 254 ng·h/mL, the AUC(0-t) worked out at 249 ng·h/mL and the highest concentration (Cmax) amounted to 27.9 ng/mL. Moreover, in data set [4] (setting [14]), the AUC(0-inf) was 103 ng·h/mL, the AUC(0-t) was 98.4 ng·h/mL and the Cmax worked out at 10.2 ng/mL. In addition, in data set [4] (setting [15]), the “AUC0-inf, Geometric LSM Ratio (R + V/R)” value is 246.86%; the “AUC0-last, Geometric LSM Ratio (R + V/R)” value is recorded as 252.86%; the “Cmax, Geometric LSM Ratio (R + V/R)” value turned out to be 274.80%.

`CCC(C)(C)C(=O)O[C@H]1C[C@@H](C)C=C2C=C[C@H](C)[C@H](CC[C@@H]3C[C@@H](O)CC(=O)O3)[C@H]21` [Simvastatin, simvastatin, reference compound]: the “increase of total exposure” value in data set [5] (setting [8]) was “about 2 fold”.

For `Nc1ccc(S(=O)(=O)Nc2ccccn2)cc1` [Sulfapyridine, sulfapyridine], in data set [2] (human, in vivo), the AUC(0-inf) is 42800 ng·h/mL, the AUC(0-t) is 42400 ng·h/mL and the highest level (Cmax) was 2580 ng/mL.

As for `O=C(O)c1cc(/N=N/c2ccc(S(=O)(=O)Nc3ccccn3)cc2)ccc1O` [Sulfasalazine, sulfasalazine, reference compound], in data set [2] (human, in vivo), the AUC(0-inf) came out at 82700 ng·h/mL, the AUC(0-t) is 82200 ng·h/mL and the highest level (Cmax) was 9700 ng/mL. Also, the “increase of systemic exposure” value in data set [2] (both, human, in vivo) is on record as “up to 4.5 fold”.

For `CC(C)c1c(C(=O)Nc2ccccc2O)c(-c2ccccc2)c(-c2ccc(F)cc2)n1CC[C@@H](O)C[C@@H](O)CC(=O)O` [o-hydroxy atorvastatin, (3R,5R)-7-[2-(4-fluorophenyl)-4-[(2-hydroxyphenyl)carbamoyl]-3-phenyl-5-propan-2-ylpyrrol-1-yl]-3,5-dihydroxyheptanoic acid], in data set [6], the “AUC0-∞, Ratio of geometric mean value Combined/alone” value was determined as 112.01%; the “Cmax, Ratio of geometric mean value Combined/alone” value was 91.20%; the “AUCtau, Geometric LSM Ratio (A + V/A)” value came to 111.34%; the “Cmax, Geometric LSM Ratio (A + V/A)” value is listed as 91.20%. For the same compound, in data set [6], the area under the curve (AUC) worked out at 96 ng·h/mL and the Cmax is 15 ng/mL.

For `CC(C)c1c(C(=O)Nc2ccc(O)cc2)c(-c2ccccc2)c(-c2ccc(F)cc2)n1CC[C@@H](O)C[C@@H](O)CC(=O)O` [p-hydroxy atorvastatin, (3R,5R)-7-[2-(4-fluorophenyl)-4-[(4-hydroxyphenyl)carbamoyl]-3-phenyl-5-propan-2-ylpyrrol-1-yl]-3,5-dihydroxyheptanoic acid], in data set [6], the “AUC0-∞, Ratio of geometric mean value Combined/alone” value stood at 167.57%; the “Cmax, Ratio of geometric mean value Combined/alone” value was 230.48%; the “AUCtau, Geometric LSM Ratio (A + V/A)” value was determined as 175.60%; the “Cmax, Geometric LSM Ratio (A + V/A)” value came to 230.48%. In data set [6], the area under the curve (AUC) came out at 8.92 ng·h/mL and the Cmax was 0.62 ng/mL.

In data set [5] (setting [16]), `CCC(C)(C)C(=O)O[C@H]1C[C@@H](C)C=C2C=C[C@H](C)[C@H](CC[C@@H](O)C[C@@H](O)CC(=O)O)[C@H]21` [β-hydroxysimvastatin acid, (3R,5R)-7-[(1S,2S,6R,8S,8aR)-8-(2,2-dimethylbutanoyloxy)-2,6-dimethyl-1,2,6,7,8,8a-hexahydronaphthalen-1-yl]-3,5-dihydroxyheptanoic acid] displayed an AUC(0-inf) of 20200 ng·h/mL, an AUC(0-t) of 17300 ng·h/mL and a Cmax of 1850 ng/mL.
